Assay results: ChEMBL document CHEMBL5325488, “Discovery of SMD-3040 as a Potent and Selective SMARCA2 PROTAC Degrader with Strong in vivo Antitumor Activity” (J Med Chem, 2023)
Active and inactive are the calls of the source. The rule behind the calls is not given here.

Legend:
[1] = Drug concentration in SCID mouse tumor xenografted with human MV4-11 cells at 50 mg/kg, iv measured after 96 hrs by LC-MS/MS method; format: ADME, organism-based, Neoplasm; conditions: read-out: Ct
[2] = target: T1, von Hippel-Lindau disease tumor suppressor/SWI/SNF-related matrix-associated actin-dependent regulator of chromatin subfamily A member 4 (Homo sapiens, UniProt P51532+P40337); experiment: In vivo PROTAC activity at VHL/SMARCA4 in SCID mouse xenografted with human MV4-11 cells assessed as reduction of SMARCA4 level in tumor at 50 mg/kg, iv administered as single dose measured after 48 hrs by Western blotting analysis; format: ADME, organism-based; parameters: scale not given: the % may be the effect or the level left
Target sequence in this assay (P51532 whole entry, the tested form may be a part): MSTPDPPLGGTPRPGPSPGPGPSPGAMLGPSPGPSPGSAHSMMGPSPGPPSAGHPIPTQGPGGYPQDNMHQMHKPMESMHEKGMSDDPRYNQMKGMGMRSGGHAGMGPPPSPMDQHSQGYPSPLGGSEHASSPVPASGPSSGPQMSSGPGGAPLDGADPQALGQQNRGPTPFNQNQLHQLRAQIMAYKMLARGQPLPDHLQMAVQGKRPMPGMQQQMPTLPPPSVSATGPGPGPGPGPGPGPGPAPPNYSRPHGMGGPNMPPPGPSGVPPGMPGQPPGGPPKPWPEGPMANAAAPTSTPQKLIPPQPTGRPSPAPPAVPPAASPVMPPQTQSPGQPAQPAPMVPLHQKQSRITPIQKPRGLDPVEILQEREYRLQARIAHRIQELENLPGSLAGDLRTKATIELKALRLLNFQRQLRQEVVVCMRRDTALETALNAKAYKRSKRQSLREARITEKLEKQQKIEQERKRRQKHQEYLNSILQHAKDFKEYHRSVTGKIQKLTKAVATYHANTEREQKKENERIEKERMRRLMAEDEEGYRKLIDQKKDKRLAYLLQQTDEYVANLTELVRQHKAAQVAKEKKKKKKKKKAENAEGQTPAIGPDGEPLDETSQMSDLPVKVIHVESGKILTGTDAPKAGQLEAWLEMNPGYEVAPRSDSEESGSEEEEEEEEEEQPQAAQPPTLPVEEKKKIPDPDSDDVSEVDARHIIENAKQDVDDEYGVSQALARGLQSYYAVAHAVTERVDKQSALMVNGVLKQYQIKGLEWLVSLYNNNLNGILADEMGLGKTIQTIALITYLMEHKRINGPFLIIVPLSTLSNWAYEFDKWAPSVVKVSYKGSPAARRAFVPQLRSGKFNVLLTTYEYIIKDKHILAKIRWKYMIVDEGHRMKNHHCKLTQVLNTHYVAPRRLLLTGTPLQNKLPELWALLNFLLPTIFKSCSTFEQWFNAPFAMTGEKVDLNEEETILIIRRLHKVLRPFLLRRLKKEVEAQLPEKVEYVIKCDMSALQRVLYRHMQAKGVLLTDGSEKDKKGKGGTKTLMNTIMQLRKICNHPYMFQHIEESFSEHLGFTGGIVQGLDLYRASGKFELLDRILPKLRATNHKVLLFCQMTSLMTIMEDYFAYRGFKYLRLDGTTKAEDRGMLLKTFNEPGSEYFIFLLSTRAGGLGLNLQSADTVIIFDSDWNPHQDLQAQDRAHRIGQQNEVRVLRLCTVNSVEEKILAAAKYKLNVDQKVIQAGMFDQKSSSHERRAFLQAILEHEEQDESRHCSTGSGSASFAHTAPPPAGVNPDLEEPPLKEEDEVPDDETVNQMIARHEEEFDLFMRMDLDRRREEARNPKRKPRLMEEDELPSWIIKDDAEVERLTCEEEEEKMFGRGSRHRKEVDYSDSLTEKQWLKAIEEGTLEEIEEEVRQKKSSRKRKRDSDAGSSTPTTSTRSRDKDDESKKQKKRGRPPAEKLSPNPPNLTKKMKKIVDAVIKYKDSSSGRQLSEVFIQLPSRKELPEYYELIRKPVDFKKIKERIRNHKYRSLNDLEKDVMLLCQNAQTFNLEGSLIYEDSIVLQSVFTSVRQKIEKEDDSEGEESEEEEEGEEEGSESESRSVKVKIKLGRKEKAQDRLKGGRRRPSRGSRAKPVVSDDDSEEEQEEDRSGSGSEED
Target sequence in this assay (P40337 whole entry, the tested form may be a part): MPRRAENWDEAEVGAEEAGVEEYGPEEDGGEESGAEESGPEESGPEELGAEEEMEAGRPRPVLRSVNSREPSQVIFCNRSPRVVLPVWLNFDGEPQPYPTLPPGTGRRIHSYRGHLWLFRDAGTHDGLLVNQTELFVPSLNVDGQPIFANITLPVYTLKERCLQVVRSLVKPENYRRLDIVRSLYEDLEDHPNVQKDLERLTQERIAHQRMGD

[3] = target: T1, von Hippel-Lindau disease tumor suppressor/SWI/SNF-related matrix-associated actin-dependent regulator of chromatin subfamily A member 4; experiment: PROTAC activity at VHL/C-terminal HiBiT fused SMARCA4 in human HeLa cells assessed as induction of SMARCA4 degradation by measuring maximal efficacy at 0.001 to 10 uM incubated for 6 hrs by Nano-Glo HiBiT analysis relative to control; format: cell-based; conditions: dose 0.001-10 µM
[4] = target: T2, von Hippel-Lindau disease tumor suppressor/SWI/SNF-related matrix-associated actin-dependent regulator of chromatin subfamily A member 2 (Homo sapiens, UniProt P51531+P40337); experiment: PROTAC activity at VHL/C-terminal HiBiT fused SMARCA2 in human HeLa cells assessed as induction of SMARCA2 degradation pre-treated with MLN4924 for 2 hrs followed by compound treatment for 24 hrs by Nano-Glo HiBiT analysis; format: cell-based
[5] = test system: SK-MEL-5; experiment: Antiproliferative activity against SMARCA4-deficient human SK-MEL-5 cells assessed as cell growth inhibition measured after 7 days by WST-8 assay; format: functional; conditions: SK-MEL-5, 168 h, time 7 day
[6] = target: T2, von Hippel-Lindau disease tumor suppressor/SWI/SNF-related matrix-associated actin-dependent regulator of chromatin subfamily A member 2; experiment: PROTAC activity at VHL/wild-type SMARCA2 in human SK-MEL-28 cells assessed as induction of SMARCA2 degradation incubated for 24 hrs by Western blotting analysis; format: cell-based
Target sequence in this assay (P51531 whole entry, the tested form may be a part): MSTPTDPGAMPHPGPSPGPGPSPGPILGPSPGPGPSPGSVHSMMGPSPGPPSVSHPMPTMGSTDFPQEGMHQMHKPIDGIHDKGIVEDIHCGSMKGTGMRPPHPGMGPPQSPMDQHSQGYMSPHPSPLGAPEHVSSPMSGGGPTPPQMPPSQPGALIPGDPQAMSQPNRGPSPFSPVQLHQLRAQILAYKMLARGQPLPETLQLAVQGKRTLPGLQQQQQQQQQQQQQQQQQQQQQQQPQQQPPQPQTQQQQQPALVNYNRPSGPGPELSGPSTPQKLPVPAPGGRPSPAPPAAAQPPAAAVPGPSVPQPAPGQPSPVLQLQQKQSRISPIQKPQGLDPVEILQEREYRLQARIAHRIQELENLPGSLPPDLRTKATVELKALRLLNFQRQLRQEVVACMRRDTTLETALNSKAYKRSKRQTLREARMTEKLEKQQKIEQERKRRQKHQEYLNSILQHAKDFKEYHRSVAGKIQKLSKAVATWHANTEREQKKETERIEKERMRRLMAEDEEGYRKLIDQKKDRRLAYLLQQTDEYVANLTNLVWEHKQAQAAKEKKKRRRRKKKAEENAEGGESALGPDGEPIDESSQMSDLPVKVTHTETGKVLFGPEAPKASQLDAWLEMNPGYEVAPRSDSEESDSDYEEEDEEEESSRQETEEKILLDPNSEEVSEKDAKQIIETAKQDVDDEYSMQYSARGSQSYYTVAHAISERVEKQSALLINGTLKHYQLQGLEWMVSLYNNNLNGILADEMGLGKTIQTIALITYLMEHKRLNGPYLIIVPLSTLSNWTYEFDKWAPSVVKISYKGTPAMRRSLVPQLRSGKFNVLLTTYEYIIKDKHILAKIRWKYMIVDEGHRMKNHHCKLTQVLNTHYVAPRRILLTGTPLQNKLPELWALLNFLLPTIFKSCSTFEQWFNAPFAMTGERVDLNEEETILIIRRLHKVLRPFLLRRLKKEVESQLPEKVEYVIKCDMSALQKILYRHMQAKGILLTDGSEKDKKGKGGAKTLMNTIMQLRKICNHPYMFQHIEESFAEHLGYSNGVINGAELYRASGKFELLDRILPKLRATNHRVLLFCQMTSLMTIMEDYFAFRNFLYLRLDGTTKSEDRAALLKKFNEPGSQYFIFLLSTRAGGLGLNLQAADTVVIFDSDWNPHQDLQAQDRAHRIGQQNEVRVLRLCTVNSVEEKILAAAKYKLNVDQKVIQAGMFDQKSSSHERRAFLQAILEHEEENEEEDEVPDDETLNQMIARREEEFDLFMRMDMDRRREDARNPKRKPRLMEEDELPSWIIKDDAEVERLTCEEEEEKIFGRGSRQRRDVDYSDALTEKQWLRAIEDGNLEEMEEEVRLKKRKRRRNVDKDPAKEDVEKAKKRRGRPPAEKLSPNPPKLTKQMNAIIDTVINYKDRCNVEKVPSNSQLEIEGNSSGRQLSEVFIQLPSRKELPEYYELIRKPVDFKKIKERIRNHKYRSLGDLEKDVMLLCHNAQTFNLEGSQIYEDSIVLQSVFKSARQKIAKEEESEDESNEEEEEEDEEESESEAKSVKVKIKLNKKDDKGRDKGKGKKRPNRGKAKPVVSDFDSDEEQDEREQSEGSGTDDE
Target sequence in this assay (P40337 whole entry, the tested form may be a part): as the sequence (P40337 whole entry, the tested form may be a part) above

[7] = Drug concentration in SCID mouse plasma xenografted with human MV4-11 cells at 50 mg/kg, iv measured after 2 hrs by LC-MS/MS method; format: ADME, organism-based
[8] = target: T1, von Hippel-Lindau disease tumor suppressor/SWI/SNF-related matrix-associated actin-dependent regulator of chromatin subfamily A member 4; experiment: PROTAC activity at VHL/C-terminal HiBiT fused SMARCA4 in human HeLa cells assessed as induction of SMARCA4 degradation incubated for 1 hr by Nano-Glo HiBiT analysis; format: cell-based
Target sequence in this assay (P51532 whole entry, the tested form may be a part): as the sequence (P51532 whole entry, the tested form may be a part) above
Target sequence in this assay (P40337 whole entry, the tested form may be a part): as the sequence (P40337 whole entry, the tested form may be a part) above

[9] = target: T1, von Hippel-Lindau disease tumor suppressor/SWI/SNF-related matrix-associated actin-dependent regulator of chromatin subfamily A member 4; experiment: PROTAC activity at VHL/C-terminal HiBiT fused SMARCA4 in human HeLa cells assessed as induction of SMARCA4 degradation by measuring maximal efficacy at 0.001 to 10 uM incubated for 24 hrs by Nano-Glo HiBiT analysis relative to control; format: cell-based; conditions: dose 0.001-10 µM
[10] = target: T2, von Hippel-Lindau disease tumor suppressor/SWI/SNF-related matrix-associated actin-dependent regulator of chromatin subfamily A member 2; experiment: PROTAC activity at VHL/C-terminal HiBiT fused SMARCA2 in human HeLa cells assessed as induction of SMARCA2 degradation incubated for 1 to 48 hrs by Nano-Glo HiBiT analysis; format: cell-based; conditions: dose 0.001-10 µM, time 1-48 hrs
[11] = test system: NCI-H1975; experiment: Antiproliferative activity against human NCI-H1975 cells expressing wild-type SMARCA2 assessed as cell growth inhibition by measuring maximal efficacy measured after 7 days by WST-8 assay relative to control; format: functional; conditions: time 7 day
[12] = target: T2, von Hippel-Lindau disease tumor suppressor/SWI/SNF-related matrix-associated actin-dependent regulator of chromatin subfamily A member 2; experiment: PROTAC activity at VHL/wild-type SMARCA2 in human SK-MEL-5 cells assessed as induction of SMARCA2 degradation incubated for 24 hrs by Western blotting analysis; format: cell-based
Target sequence in this assay (P51531 whole entry, the tested form may be a part): as the sequence (P51531 whole entry, the tested form may be a part) above
Target sequence in this assay (P40337 whole entry, the tested form may be a part): as the sequence (P40337 whole entry, the tested form may be a part) above

[13] = target: T2, von Hippel-Lindau disease tumor suppressor/SWI/SNF-related matrix-associated actin-dependent regulator of chromatin subfamily A member 2; experiment: PROTAC activity at VHL/wild-type SMARCA2 in human SK-MEL-5 cells assessed as induction of SMARCA2 degradation at 0.001 to 1000 nM incubated for 24 hrs by Western blotting analysis relative to control; format: cell-based; conditions: dose 0.001-1000 nM
[14] = Drug concentration in SCID mouse plasma xenografted with human MV4-11 cells at 50 mg/kg, iv measured after 24 hrs by LC-MS/MS method; format: ADME, organism-based
[15] = target: T2, von Hippel-Lindau disease tumor suppressor/SWI/SNF-related matrix-associated actin-dependent regulator of chromatin subfamily A member 2; experiment: PROTAC activity at VHL/C-terminal HiBiT fused SMARCA2 in human HeLa cells assessed as induction of SMARCA2 degradation incubated for 48 hrs by Nano-Glo HiBiT analysis; format: cell-based
Target sequence in this assay (P51531 whole entry, the tested form may be a part): as the sequence (P51531 whole entry, the tested form may be a part) above
Target sequence in this assay (P40337 whole entry, the tested form may be a part): as the sequence (P40337 whole entry, the tested form may be a part) above

[16] = target: T1, von Hippel-Lindau disease tumor suppressor/SWI/SNF-related matrix-associated actin-dependent regulator of chromatin subfamily A member 4; experiment: PROTAC activity at VHL/C-terminal HiBiT fused SMARCA4 in human HeLa cells assessed as induction of SMARCA4 degradation at 0.001 to 10 uM by Nano-Glo HiBiT analysis; format: cell-based; conditions: dose 0.001-10 µM, time 1-48 hrs, TDE = time-dependent effect
[17] = Drug concentration in SCID mouse tumor xenografted with human MV4-11 cells at 50 mg/kg, iv measured after 72 hrs by LC-MS/MS method; format: ADME, organism-based, Neoplasm; conditions: read-out: Ct
[18] = target: T2, von Hippel-Lindau disease tumor suppressor/SWI/SNF-related matrix-associated actin-dependent regulator of chromatin subfamily A member 2; experiment: In vivo PROTAC activity at VHL/SMARCA2 in SCID mouse xenografted with human NCI-H838 cells assessed as reduction of SMARCA2 level in tumor at 50 mg/kg, iv administered as single dose measured after 3 hrs by Western blotting analysis; format: functional, organism-based; parameters: scale not given: the % may be the effect or the level left
[19] = target: T2, von Hippel-Lindau disease tumor suppressor/SWI/SNF-related matrix-associated actin-dependent regulator of chromatin subfamily A member 2; experiment: PROTAC activity at VHL/C-terminal HiBiT fused SMARCA2 in human HeLa cells assessed as induction of SMARCA2 degradation pre-treated with PR171 for 2 hrs followed by compound treatment for 24 hrs by Nano-Glo HiBiT analysis; format: cell-based
[20] = Drug concentration in SCID mouse tumor xenografted with human MV4-11 cells at 50 mg/kg, iv measured after 24 hrs by LC-MS/MS method; format: ADME, organism-based, Neoplasm; conditions: read-out: Ct
[21] = target: T1, von Hippel-Lindau disease tumor suppressor/SWI/SNF-related matrix-associated actin-dependent regulator of chromatin subfamily A member 4; experiment: PROTAC activity at VHL/C-terminal HiBiT fused SMARCA4 in human HeLa cells assessed as induction of SMARCA4 degradation incubated for 1 to 48 hrs by Nano-Glo HiBiT analysis; format: cell-based; conditions: dose 0.001-10 µM, time 1-48 hrs
[22] = Drug concentration in SCID mouse plasma xenografted with human MV4-11 cells at 50 mg/kg, iv measured after 6 hrs by LC-MS/MS method; format: ADME, organism-based
[23] = target: T1, von Hippel-Lindau disease tumor suppressor/SWI/SNF-related matrix-associated actin-dependent regulator of chromatin subfamily A member 4; experiment: In vivo PROTAC activity at VHL/SMARCA4 in SCID mouse xenografted with human MV4-11 cells assessed as remaining activity in tumor at 50 mg/kg, iv administered as single dose measured after 72 hrs by Western blotting analysis (reference value: 100 +/- 15 % ); format: ADME, organism-based
Target sequence in this assay (P51532 whole entry, the tested form may be a part): as the sequence (P51532 whole entry, the tested form may be a part) above
Target sequence in this assay (P40337 whole entry, the tested form may be a part): as the sequence (P40337 whole entry, the tested form may be a part) above

[24] = test system: SK-MEL-28; experiment: Antiproliferative activity against human SK-MEL-28 cells expressing wild-type SMARCA2 assessed as cell growth inhibition by measuring maximal efficacy measured after 7 days by WST-8 assay relative to control; format: functional; conditions: time 7 day
[25] = target: T1, von Hippel-Lindau disease tumor suppressor/SWI/SNF-related matrix-associated actin-dependent regulator of chromatin subfamily A member 4; experiment: In vivo PROTAC activity at VHL/SMARCA4 in SCID mouse xenografted with human MV4-11 cells assessed as reduction of SMARCA4 level in tumor at 50 mg/kg, iv administered as single dose measured after 24 hrs by Western blotting analysis; format: ADME, organism-based; parameters: scale not given: the % may be the effect or the level left
Target sequence in this assay (P51532 whole entry, the tested form may be a part): as the sequence (P51532 whole entry, the tested form may be a part) above
Target sequence in this assay (P40337 whole entry, the tested form may be a part): as the sequence (P40337 whole entry, the tested form may be a part) above

[26] = target: T2, von Hippel-Lindau disease tumor suppressor/SWI/SNF-related matrix-associated actin-dependent regulator of chromatin subfamily A member 2; experiment: PROTAC activity at VHL/C-terminal HiBiT fused SMARCA2 in human HeLa cells assessed as induction of SMARCA2 degradation pre-treated with 2-(6-amino-5-(1-methyl-1H-pyrazol-4-yl)pyridazin-3-yl)phenol for 2 hrs followed by compound treatment for 24 hrs by Nano-Glo HiBiT analysis; format: cell-based
[27] = target: T2, von Hippel-Lindau disease tumor suppressor/SWI/SNF-related matrix-associated actin-dependent regulator of chromatin subfamily A member 2; experiment: In vivo PROTAC activity at VHL/SMARCA2 in SCID mouse xenografted with human MV4-11 cells assessed as remaining activity in tumor at 50 mg/kg, iv administered as single dose measured after 24 hrs by Western blotting analysis (reference value: 100 +/- 15 % ); format: ADME, organism-based
Target sequence in this assay (P51531 whole entry, the tested form may be a part): as the sequence (P51531 whole entry, the tested form may be a part) above
Target sequence in this assay (P40337 whole entry, the tested form may be a part): as the sequence (P40337 whole entry, the tested form may be a part) above

concentration at 96 h [1]: 560 ng/g | Activity [2]: 13% | Emax [3]: 49% | Activity [4]: inactive | GI50 [5]: 15 nM | DC50 [6]: 35 nM | concentration at 2 h [7]: 2730 ng/mL | DC50 [8]: > 3300 nM | Emax [9]: 57% | Activity [10]: Dose-Dependent Effect | DC50 [12]: 20 nM | Emax [13]: 94% | concentration at 24 h [14]: 218 ng/mL | DC50 [15]: 11 nM | Activity [16]: Tde | concentration at 72 h [17]: 370 ng/g | Activity [18]: 70% | Activity [19]: inactive | concentration at 24 h [20]: 2960 ng/g | Activity [21]: Dose-Dependent Effect | concentration at 6 h [22]: 766 ng/mL | Activity [23]: 91% | Activity [25]: 29% | Activity [26]: inactive | Activity [27]: 14%
SMILES: Cc1ncsc1-c1ccc([C@H](C)NC(=O)[C@@H]2C[C@@H](O)CN2C(=O)[C@@H](NC(=O)[C@H]2CC[C@H](CN3CC4(CCC(n5cc(-c6cc(-c7ccccc7O)nnc6N)cn5)CC4)C3)CC2)C(C)(C)C)cc1
Imax [11]: 47% | Imax [24]: 15%
